Patent US8946266B2, “Substituted triazole and imidazole derivatives as gamma secretase modulators” (Janssen Pharmaceuticals, Inc., priority 2009, dated 2015)
Like-named read-outs stand apart in the source and are kept apart here.

Key:
Aβ42 = assay: γ-secretase-modulating activity, Method 2: Aβ42 Alphalisa in supernatant of SKNBE2 cells carrying APP 695-wild type (Table 3b); type: cell-based; settings: overnight
Description: (§1) Screening was carried out using SKNBE2 cells carrying the APP 695-wild type, grown in Dulbecco's Modified Eagle's Medium/Nutrient mixture F-12 (DMEM/NUT-mix F-12) (HAM) provided by Invitrogen (cat no. 10371-029) containing 5% Serum/Fe supplemented with 1% non-essential amino acids, 1-glutamine 2 mM, Hepes 15 mM, penicillin 50 U/ml (units/ml) en streptomycin 50 μg/ml. Cells were grown to near confluency.
(§2) The screening was performed using a modification of the assay as described in Citron et al (1997) Nature Medicine 3: 67. Briefly, cells were plated in a 384-well plate at 10^4 cells/well in Ultraculture (Lonza, BE12-725F) supplemented with 1% glutamine (Invitrogen, 25030-024), 1% non-essential amino acid (NEAA), penicillin 50 U/ml en streptomycin 50 μg/ml in the presence of test compound at different test concentrations. The cell/compound mixture was incubated overnight at 37° C., 5% CO2. The next day the media were assayed by two sandwich immuno-assays, for Aβ42 and Aβtotal.
(§3) Aβtotal and Aβ42 concentrations were quantified in the cell supernatant using the Aphalisa technology (Perkin Elmer). Alphalisa is a sandwich assay using biotinylated antibody attached to streptavidin coated donorbeads and antibody conjugated to acceptor beads. In the presence of antigen, the beads come into close proximity. The excitation of the donor beads provokes the release of singlet oxygen molecules that trigger a cascade of energy transfer in the acceptor beads, resulting in light emission. To quantify the amount of Aβ42 in the cell supernatant, monoclonal antibody specific to the C-terminus of Aβ42 (JRF/cAβ42/26) was coupled to the receptor beads and biotinylated antibody specific to the N-terminus of Aβ (JRF/AβN/25) was used to react with the donor beads. To quantify the amount of Aβ total in the cell supernatant, monoclonal antibody specific to the N-terminus of Aβ (JRF/AβN/25) was coupled to the receptor beads and biotinylated antibody specific to the mid region of Aβ (biotinylated 4G8) was used to react with the donor beads.
To obtain the values reported in Table 3b, the data were calculated as percentage of the maximum amount of amyloid Beta 42 measured in the absence of the test compound.
(§4) The sigmoidal dose response curves were analyzed using non-linear regression analysis with percentage of the control plotted against the log concentration of the compound. A 4-parameter equation was used to determine the IC50.
(§5) The IC50 values are shown in Table 3b (Aβtot means Aβtotal).

Aβtotal = assay: γ-secretase-modulating activity, Method 2: Aβtotal Alphalisa in supernatant of SKNBE2 cells carrying APP 695-wild type (Table 3b); type: cell-based; settings: overnight, read-out: IC50 Aβtot
Description: as §1, §2, §3, §4, §5

IC50 (Aβ42) [µM] | IC50 (Aβtotal) [µM] | IC50 (Aβ42; Homo sapiens) [µM] | IC50 (Aβtotal; Homo sapiens) [µM] | Structure (SMILES)
1.26 | > 10 | – | – | COc1nc(-c2nc(C)n(C(C)c3ccc(F)cc3)n2)ccc1-n1cnc(C)c1 (racemic) [Compound 69]
0.251 | 6.46 | – | – | COc1cc(-c2nc(N3CCC(c4cccc(C(F)(F)F)c4)C3)n(C(C)C)n2)ccc1-n1cnc(C)c1 (racemic) [Compound 74]
0.676 | 6.46 | – | – | COc1cc(-c2nc(N3CCCC(C(F)(F)F)C3)n(C(C)C)n2)ccc1-n1cnc(C)c1 (racemic) [Compound 75]
0.851 | 12.6 | – | – | COc1cc(-c2nc(N3CCCC3)n(C(C)c3ccc(F)cc3)n2)ccc1-n1cnc(C)c1 (racemic) [Compound 76]
0.05 | 8.51 | – | – | COc1cc(-c2nc(N3CCCC(c4ccccc4)C3)n(C)n2)ccc1-n1cnc(C)c1 (racemic) [Compound 78]
0.019 | 5.01 | – | – | CCC(C)n1nc(-c2ccc(-n3cnc(C)c3)c(OC)c2)nc1Nc1cc(C(F)(F)F)ccc1F (racemic) [Compound 179]
0.871 | > 10 | – | – | COc1cc(-c2nc(C(C)(C)O)n(C(C)c3ccc(F)cc3)n2)ccc1-n1cnc(C)c1 (racemic) [Compound 300]
0.062 | – | – | – | COc1cc(-c2nc(Nc3cc(OC4CCOC4)ccc3F)n(C)n2)ccc1-n1cnc(C)c1 (racemic) [Compound 358]
– | – | 0.646 | > 10 | COc1cc(-c2n[nH]c(-c3ccc(F)cc3)n2)ccc1-n1cnc(C)c1 [Compound 4]
– | – | 0.17 | > 10 | COc1cc(-c2nc(-c3ccc(F)cc3)n(C(C)C)n2)ccc1-n1cnc(C)c1 [Compound 5]
– | – | 0.309 | > 10 | COc1cc(-c2n[nH]c(-c3cccc(C(F)(F)F)c3)n2)ccc1-n1cnc(C)c1 [Compound 6]
0.117 | > 10 | – | – | COc1cc(-c2nc(-c3cccc(C(F)(F)F)c3)n(C)n2)ccc1-n1cnc(C)c1 [Compound 7]
4.27 | > 10 | – | – | COc1cc(-c2nc(-c3cccc(C(F)(F)F)c3)nn2C)ccc1-n1cnc(C)c1 [Compound 8]
0.309 | > 10 | – | – | COc1cc(-c2nc(Nc3ccc(F)cc3C(F)(F)F)nn2C)ccc1-n1cnc(C)c1 [Compound 16]
– | – | 0.407 | > 10 | COc1cc(-c2nc3n(n2)CCCc2ccccc2-3)ccc1-n1cnc(C)c1 [Compound 17]
– | – | 0.162 | > 10 | COc1cc(-c2nc(C)n(-c3ccccc3C(F)(F)F)n2)ccc1-n1cnc(C)c1 [Compound 19]
0.479 | > 10 | – | – | COc1cc(-c2nc(Cc3ccc(F)cc3)n(C)n2)ccc1-n1cnc(C)c1 [Compound 22]
5.01 | > 10 | – | – | COc1cc(-c2nc(-c3ccccc3Cl)nn2C)ccc1-n1cnc(C)c1 [Compound 23]
0.295 | > 10 | – | – | COc1cc(-c2nc(C)n(-c3cccc(C(F)(F)F)c3)n2)ccc1-n1cnc(C)c1 [Compound 30]
0.447 | > 10 | – | – | COc1cc(-c2nc(C(C)C)n(-c3ccc(F)cc3)n2)ccc1-n1cnc(C)c1 [Compound 31]

IC50 (Aβ42) [µM] | IC50 (Aβtotal) [µM] | IC50 (Aβ42; Homo sapiens) [µM] | IC50 (Aβtotal; Homo sapiens) [µM] | Structure (SMILES)
0.269 | > 10 | – | – | COc1cc(-c2n[nH]c(C3CCCCC3)n2)ccc1-n1cnc(C)c1 [Compound 33]
0.24 | > 10 | – | – | COc1cc(-c2nc(C3CCCCC3)n(C)n2)ccc1-n1cnc(C)c1 [Compound 34]
0.776 | > 10 | – | – | COc1cc(-c2nc(N3CC(C)OC(C)C3)n(C)n2)ccc1-n1cnc(C)c1 (stereo not drawn) [Compound 35]
0.575 | > 10 | – | – | COc1cccc(-c2nc(-c3ccc(-n4cnc(C)c4)c(OC)c3)nn2C)c1 [Compound 36]
0.085 | 11.2 | – | – | COc1cccc(-c2nc(-c3ccc(-n4cnc(C)c4)c(OC)c3)nn2C(C)C)c1 [Compound 37]
0.158 | > 10 | – | – | COc1cc(-c2nc(-c3ccccc3C(F)(F)F)n(C)n2)ccc1-n1cnc(C)c1 [Compound 38]
0.355 | > 10 | – | – | COc1cc(-c2nc(-c3ccc(F)cc3)n(C)n2)ccc1-n1cnc(C)c1 [Compound 40]
0.407 | > 10 | – | – | COc1cc(-c2nc(-c3ccc(F)cc3)n(C3CCCC3)n2)ccc1-n1cnc(C)c1 [Compound 41]
0.148 | > 10 | – | – | COc1cc(-c2nc(-c3ccc(-n4cnc(C)c4)c(OC)c3)nn2C)ccc1Cl [Compound 43]
0.085 | > 10 | – | – | COc1cc(-c2nc(/C=C/c3ccc(F)cc3)n(C)n2)ccc1-n1cnc(C)c1 [Compound 45]
0.138 | 8.51 | – | – | COc1cc(-c2nc(Cc3ccc(F)cc3C(F)(F)F)n(C)n2)ccc1-n1cnc(C)c1 [Compound 46]
0.302 | 3.24 | – | – | COc1cc(-c2nc(C3(c4ccc(F)cc4)CC3)n(C)n2)ccc1-n1cnc(C)c1 [Compound 47]
0.245 | 6.92 | – | – | COc1cc(-c2nc(Nc3cc(F)c(F)c(F)c3)n(C)n2)ccc1-n1cnc(C)c1 [Compound 48]
0.04 | 6.03 | – | – | COc1cc(-c2nc(Nc3ccc(F)cc3C(F)(F)F)n(C(C)C)n2)ccc1-n1cnc(C)c1 [Compound 49]
0.11 | > 10 | – | – | COc1cc(-c2nc(N(C)c3ccc(F)cc3C(F)(F)F)n(C)n2)ccc1-n1cnc(C)c1 [Compound 50]
0.324 | > 10 | – | – | COc1cc(-c2nc(N[C@@H](C)c3ccc(F)cc3)n(C)n2)ccc1-n1cnc(C)c1 [Compound 51]
5.75 | > 10 | – | – | COc1cc(-c2nc(-c3ccc(F)cc3)nn2C)ccc1-n1cnc(C)c1 [Compound 52]
> 10 | > 10 | – | – | COc1cc(-c2nc(N(C)c3ccc(F)cc3C(F)(F)F)nn2C)ccc1-n1cnc(C)c1 [Compound 53]
4.17 | > 10 | – | – | COc1cc(-c2nc(-c3ccccc3C(F)(F)F)nn2C)ccc1-n1cnc(C)c1 [Compound 54]
0.234 | > 10 | – | – | COc1cccc(-c2n[nH]c(-c3ccc(-n4cnc(C)c4)c(OC)c3)n2)c1 [Compound 55]

IC50 (Aβ42) [µM] | IC50 (Aβtotal) [µM] | IC50 (Aβ42; Homo sapiens) [µM] | IC50 (Aβtotal; Homo sapiens) [µM] | Structure (SMILES)
> 10 | > 10 | – | – | COc1cccc(-c2nc(-c3ccc(-n4cnc(C)c4)c(OC)c3)n(C)n2)c1 [Compound 56]
0.044 | – | – | – | COc1cc(-c2nc(Nc3cc(C)ccc3F)n(C)n2)ccc1-n1cnc(C)c1 [Compound 350]
0.028 | – | – | – | COc1cc(-c2nc(Nc3cc(C)ccc3C(F)(F)F)n(C)n2)ccc1-n1cnc(C)c1 [Compound 351]
0.06 | – | – | – | COc1cc(-c2nc(Nc3ccc(C)cc3F)n(C)n2)ccc1-n1cnc(C)c1 [Compound 352]
0.022 | – | – | – | CCOc1ccc(F)c(Nc2nc(-c3ccc(-n4cnc(C)c4)c(OC)c3)nn2C)c1 [Compound 354]
0.135 | – | – | – | COCCOc1ccc(F)c(Nc2nc(-c3ccc(-n4cnc(C)c4)c(OC)c3)nn2C)c1 [Compound 355]
0.02 | – | – | – | COc1cc(-c2nc(Nc3cc(OCC4CC4)ccc3F)n(C)n2)ccc1-n1cnc(C)c1 [Compound 356]
0.007 | – | – | – | COc1cc(-c2nc(Nc3cc(C(C)(C)C)ccc3F)n(C)n2)ccc1-n1cnc(C)c1 [Compound 357]
0.24 | – | – | – | COc1nc(-c2nc3n(n2)CCC[C@@H]3c2ccc(F)cc2C)ccc1-n1cnc(C)c1 [Compound 360]
0.407 | – | – | – | COc1cc(-c2nc3n(n2)C(C)CCC3c2ccc(F)cc2C)ccc1-n1cnc(C)c1 (stereo not drawn) [Compound 363]
0.083 | – | – | – | COc1ccc(F)c(C2CCCn3nc(-c4ccc(-n5cnc(C)c5)c(OC)c4)nc32)c1 (stereo not drawn) [Compound 364]
– | – | 0.447 | – | COc1cc(-c2nc(C3CCc4ccccc4N3)n(C)n2)ccc1-n1cnc(C)c1 (stereo not drawn) [Compound 365]
– | – | 0.513 | – | COc1cc(-c2nc(C3CCc4ccccc4N3C)n(C)n2)ccc1-n1cnc(C)c1 (stereo not drawn) [Compound 366]
0.078 | – | – | – | COc1cc(-c2nc(Nc3ccccc3OC(C)C)n(C)n2)ccc1-n1cnc(C)c1 [Compound 367]
0.066 | – | – | – | COc1nc(-c2nc3n(n2)CCC(C)C3c2ccc(F)cc2)ccc1-n1cnc(C)c1 (stereo not drawn) [Compound 368]
0.123 | – | – | – | COc1cc(-c2nc3n(n2)CCC(C)C3c2ccc(F)cc2)ccc1-n1cnc(C)c1 (stereo not drawn) [Compound 369]
0.036 | – | – | – | COc1nc(-c2nc3n(n2)CCOC3c2cc(C(F)(F)F)ccc2C)ccc1-n1cnc(C)c1 (stereo not drawn) [Compound 370]
0.04 | – | – | – | COc1cc(-c2nc3n(n2)CCOC3c2cc(C(F)(F)F)ccc2C)ccc1-n1cnc(C)c1 (stereo not drawn) [Compound 371]
0.062 | – | – | – | COc1nc(-c2nc3n(n2)CCOC3c2cc(OC(F)(F)F)ccc2F)ccc1-n1cnc(C)c1 (stereo not drawn) [Compound 374]
